From patent EP3423441B1, “IODINATED ANALOGS OF CHOLINE, METHODS OF PREPARATION THEREOF, AND USE THEREOF AS MEDICAMENTS” (Univerzita Palackého v Olomouci, priority 2016, dated 2017)
Like-named read-outs stand apart in the source and are kept apart here.

Experiments:
choline transporters [1] = experiment: In vitro determination of IC50: inhibition of [^3H]choline chloride accumulation in PC-3 cells; format: cell-based; details: cell line PC-3 (human prostate carcinoma); [^3H]choline chloride 0.81 × 10^-6 M; 60 min at 37 °C
Protocol: IC50 value corresponds to a concentration of the given analog of choline which reduces the accumulation of choline chloride, the natural ligand of choline transporterss, to 50 % of the maximum value. For the assay, the tritium labeled choline chloride, i.e. [^3H]choline chloride, was used. The assay was performed in vitro on the cell line PC-3 derived from a human prostate carcinoma, which is known to overexpress choline transporters. […] As the negative control, a cell line of human ovarian carcinoma SKOV3 prepared to the confluence of 90 % in 24-well plates was used.
The cultivation medium was removed from the thus prepared cells in cultivation plates and the cells were rinsed with phosphate buffered saline (PBS). Subsequently, 0.3 mL of "incubation buffer" (25 mM Tris/HCl, 5.4 mM KCl, 1.8 mM CaCl2, 0.8 mM MgSO4, 5 mM glucose, 140 mM NaCl, pH adjusted to 7.4) was added to the cells. Then 0.1 mL of the solution of the tested substance (analog of choline) in the incubation buffer was added to the PC-3 cells in such concentrations, that after adding [^3H]choline chloride the resulting concentrations of the tested analog would be following: 0 M, 10^-8 M, 10^-7 M, 10^-6 M, 5 × 10^-6 M, 10^-5 M, 10^-4 M, 5 × 10^-4 M, 10^-3 M, 5×10^-3 M. Each concentration was tested in triplicate.
Subsequently, all cells prepared in this manner (PC-3 and SKOV3) were incubated with the analogs of choline for 15 minutes at the temperature of 37 °C.
Then 0.1 mL of the solution of the [^3H]choline chloride in the incubation buffer was added to all cell-containing wells, so that 0.1 mL of the solution had the activity of 15 kBq and that the final concentration of the [^3H]choline chloride in the medium with the cells was 0.81 × 10^-6 M. The cells were then incubated at 37 °C for a period of 60 min. After the incubation, all buffer solution was removed from the cells. The cells were rinsed with PBS, which was subsequently removed, and 0.2 mL of aqueous NaOH solution (0.1 M) was added to each well. The cells were incubated with sodium hydroxide for 30 min at 37 °C. The lysate was then homogenized with a pipette and 10 µL of the lysate were used for the determination of protein concentration by bicinchonic acid assay (BCA).
The remaining lysate (180 µL) was quantitatively transferred into scintillation vials containing a previously prepared scintillation solution (2 mL of the solution in each vial). Each well was then additionally rinsed with 0.2 mL of pure water and this solution was added to the corresponding scintillation vials. Scintillation vials were closed and their content was stirred on a shaker.
To another three scintillation vials containing scintillation solution (2 mL of the solution in each vial) the standard samples of [^3H]choline chloride were added (i.e. 10 µl of the [^3H]choline chloride solution together with 180 µl of aqueous NaOH solution (0.1 M) and 200 µl of water). The vials were closed and their content was stirred on the shaker.
Subsequently, radioactivity of each scintillation vial was measured using a liquid scintillation counter (Tri-Carb 2910TR Liquid Scintillation Counter, PerkinElmer). The recorded counts per second (cps) were then used to calculate the accumulation of [^3H]choline chloride in the individual cell samples. […] These values were used to construct a sigmoid curve of dependence between the rate of [^3H]choline chloride accumulation and the competing ligand (analog of choline) concentration(inhibition curve, Figure 2). The IC50 values were calculated from these inhibition curves.

[2] = Binding to plasmatic proteins; details: plasma
in vitro = details: liver microsomes
Microsomal stability = details: hepatic microsomes
choline transporters [3] = details: published data, Müller S. A. et al. (2009); cited from earlier work

| SMILES | IC50 (choline transporters [1]) | fraction unbound [2] | microsomal CLint (in vitro) | Microsomal stability t1l2 (Microsomal stability) | Plasma stability (120 min) (Stability in the plasma) | IC50 (choline transporters [3]) |
| --- | --- | --- | --- | --- | --- | --- |
| Cc1ccc(S(=O)(=O)[O-])cc1.OCC[N+]1(Cc2ccccc2I)CCCCC1 [Example 14, 1-(2-hydroxyethyl)-1-(2-iodobenzyl)piperidin-1-ium 4-methylbenzenesulfonate] | 190 µM | 0.831 | 22.6 µL/min/mg | 61.3 min | 80.7% |  |
| C[N+](C)(CCO)CCc1ccc(I)cc1.Cc1ccc(S(=O)(=O)[O-])cc1 [Example 5, (2-hydroxyethyl)-[2-(4-iodophenyl)ethyl]-dimethylammonium 4-methylbenzenesulfonate] | 7.4 µM | 0.653 | 88.6 µL/min/mg | 15.6 min | 43.0% |  |
| COc1ccc(CCC[N+](C)(C)CCO)cc1I.Cc1ccc(S(=O)(=O)[O-])cc1 [Example 4, (2-hydroxyethyl)-[3-(3-iodo-4-methoxyphenyl)propyl]-dimethylammonium 4-methylbenzenesulfonate] | 19 µM | 0.715 | 1120 µL/min/mg | 1.2 min | 63.9% |  |
| C[N+]1(C)CCOC(O)(c2ccc(-c3ccc(C4(O)C[N+](C)(C)CCO4)cc3)cc2)C1 (stereo not drawn) [Hemicholinium-3, reference compound] | 29 µM |  |  |  |  | 17 µM |
| Cc1ccc(S(=O)(=O)[O-])cc1.OC1C[N+]2(CCc3ccc(I)cc3)CCC1CC2 (stereo not drawn) [Example 8, 3-hydroxy-1-[2-(4-iodophenyl)ethyl]quinuclidin-1-ium 4-methylbenzenesulfonate] | 120 µM | 0.717 | 39.8 µL/min/mg | 34.8 min | 89.9% |  |
| CC[N+](CC)(CCO)Cc1ccccc1I.Cc1ccc(S(=O)(=O)[O-])cc1 [Example 15, Diethyl-(2-hydroxyethyl)-(2-iodobenzyl)ammonium 4-methylbenzenesulfonate] | 8.4 µM | 0.814 | 73.6 µL/min/mg | 18.8 min | 84.9% |  |
| C[N+]1(CCc2ccc(I)cc2)CCCC(O)C1.Cc1ccc(S(=O)(=O)[O-])cc1 (stereo not drawn) [Example 6, 3-hydroxy-1-[2-(4-iodophenyl)ethyl]-1-methylpiperidin-1-ium 4-methylbenzenesulfonate] | 83 µM | 0.735 | 1230 µL/min/mg | 1.1 min | 81.3% |  |
| Cc1ccc(S(=O)(=O)[O-])cc1.OCC[N+]1(CCc2ccc(I)cc2)CCCC1 [Example 7, 1-(2-hydroxyethyl)-1-[2-(4-iodophenyl)ethyl]pyrrolidin-1-ium 4-methylbenzenesulfonate] | 16 µM | 0.833 | 90.6 µL/min/mg | 15.3 min | 97.6% |  |
| COc1ccc(CC[N+]23CCC(CC2)C(O)C3)cc1I.Cc1ccc(S(=O)(=O)[O-])cc1 (stereo not drawn) [Example 2, 3-hydroxy-1-[2-(3-iodo-4-methoxyphenyl)ethyl]quinuclidin-1-ium 4-methylbenzenesulfonate] | 92 µM | 0.748 | 14.2 µL/min/mg | 97.6 min | 59.0% |  |
